Measured values reported in publication PMC6934184, “Selective DNA-PKcs inhibition extends the therapeutic index of localized radiotherapy and chemotherapy” (The Journal of Clinical Investigation, 2019).

Target: T1, PRKG2 (PKG2) (Homo sapiens, UniProt Q13237)
T1 construct: purchased Thermo Fisher Scientific (Life Technologies) SelectScreen
Assay: SelectScreen Z'LYTE
Format: biochemical
Summary of the method: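 NU5455 was profiled across the SelectScreen Broad panel of kinase activity and binding assays. Z'LYTE reactions such as CSF1R ran at apparent Km ATP, while the Adapta CAMK1 assay used ATP listed as 10. Values are given as percent.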

T1 sequence (Q13237 whole entry): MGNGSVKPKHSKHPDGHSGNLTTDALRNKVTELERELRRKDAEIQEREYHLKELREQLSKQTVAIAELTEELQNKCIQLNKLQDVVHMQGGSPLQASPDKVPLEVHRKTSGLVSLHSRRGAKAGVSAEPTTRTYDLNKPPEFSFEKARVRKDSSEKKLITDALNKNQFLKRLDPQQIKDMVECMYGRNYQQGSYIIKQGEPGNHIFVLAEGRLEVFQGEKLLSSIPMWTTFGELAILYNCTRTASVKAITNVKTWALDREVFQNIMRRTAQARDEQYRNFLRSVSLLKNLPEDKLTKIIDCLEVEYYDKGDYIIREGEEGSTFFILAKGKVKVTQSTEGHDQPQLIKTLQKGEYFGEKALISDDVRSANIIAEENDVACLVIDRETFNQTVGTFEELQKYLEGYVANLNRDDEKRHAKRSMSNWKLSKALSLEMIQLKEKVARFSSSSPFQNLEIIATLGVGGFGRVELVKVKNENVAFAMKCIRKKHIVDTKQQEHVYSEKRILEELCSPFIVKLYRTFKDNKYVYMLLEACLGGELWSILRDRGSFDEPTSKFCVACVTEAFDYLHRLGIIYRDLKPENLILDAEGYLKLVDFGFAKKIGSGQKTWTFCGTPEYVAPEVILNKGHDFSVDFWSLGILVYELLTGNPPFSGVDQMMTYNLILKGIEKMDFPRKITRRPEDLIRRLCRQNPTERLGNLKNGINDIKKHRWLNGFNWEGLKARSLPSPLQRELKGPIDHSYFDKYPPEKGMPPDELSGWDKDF

CN(C(=O)CN1CCOCC1)c1ccc2sc3c(-c4cccc5c(=O)cc(N6CC7CCC(C6)O7)oc45)cccc3c2c1 [NU5455]
inhibition at 1 µM: -5.1%
